Some test systems named below: NCI/ADR-RES; CAKI-1; HOP-62; NCI-H226; SR; KM12; DU-145; MDA-MB-231; SK-OV-3; T47D; RXF 393; CCRF-CEM; HCC 2998; SF-268; OVCAR-3; BT-549; NCI-H23; HT-29; 786-0.
Test in all cases: NCI-60 cell line screen, 48 h

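Growth conditions: 96-well plates. Treatment: test compound, 48 hours, 5 concentrations. Analysis: linear interpolation between bracketing concentrations; unreached endpoints set to highest concentration. GI50: concentration for 50% inhibition of growth.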 Active and inactive are the calls of the source. Rule as the data show it: active = GI50 up to about 1.1 µM and inactive = higher.

Regarding `CN(c1ccccc1)S(=O)(=O)c1ccccc1[N+](=O)[O-]`, the GI50 is > 100 µM (inactive) in the test on NCI/ADR-RES; > 100 µM (inactive) with CAKI-1; > 100 µM (inactive) in the test on HOP-62; > 100 µM (inactive) in the test with NCI-H226; 81.3 µM (inactive) with SR; > 100 µM (inactive) in the test with KM12. Besides, the GI50 in the test on DU-145 is > 100 µM (inactive); in the test with MDA-MB-231 it was 67.9 µM (inactive); in the test with SK-OV-3, > 100 µM (inactive); in the test with T47D it was 62.5 µM (inactive); in the test with RXF 393, > 100 µM (inactive); with CCRF-CEM it was 44.3 µM (inactive). Also, the GI50 in the test on HCC 2998 is > 100 µM (inactive); in the test on SF-268, > 100 µM (inactive); in the test on OVCAR-3, > 100 µM (inactive); in the test on BT-549, 75.2 µM (inactive); in the test with NCI-H23, > 100 µM (inactive); with HT-29, 39.8 µM (inactive). Also, the GI50 with 786-0 is > 100 µM (inactive).
Regarding `CCOC(=O)CCc1cn2cc(Br)nc(OC)c2n1`, the GI50 is 24.9 µM (inactive) in the test with NCI/ADR-RES; > 100 µM (inactive) in the test on CAKI-1; 53.2 µM (inactive) in the test with HOP-62; > 100 µM (inactive) with NCI-H226; 72.6 µM (inactive) in the test on SR; 5.41 µM (inactive) in the test on KM12. Besides, the GI50 in the test with DU-145 was 51.6 µM (inactive); with MDA-MB-231, 39.2 µM (inactive); in the test with SK-OV-3, 48.1 µM (inactive); with T47D, 46.3 µM (inactive); with RXF 393, 40.2 µM (inactive); with CCRF-CEM it was 10.1 µM (inactive). Further, the GI50 was > 100 µM (inactive) in the test with HCC 2998; > 100 µM (inactive) with SF-268; 57.7 µM (inactive) in the test with OVCAR-3; > 100 µM (inactive) in the test with BT-549; 67.5 µM (inactive) with NCI-H23; 17.9 µM (inactive) in the test on HT-29. Moreover, the GI50 in the test on 786-0 was > 100 µM (inactive).
On to `CCCC(=O)n1[nH]c(=O)n(-c2ccc(Cl)cc2)c1=O`, for which the GI50 in the test with NCI/ADR-RES, with CAKI-1, in the test on HOP-62, with NCI-H226, with SR and in the test on KM12 was > 100 µM (inactive) in each case. The GI50 in the test with DU-145, in the test on MDA-MB-231, with SK-OV-3, in the test with T47D, with RXF 393 and with CCRF-CEM was > 100 µM (inactive) throughout. The GI50 in the test on HCC 2998, in the test on SF-268, in the test with OVCAR-3, in the test on BT-549, with NCI-H23 and in the test on HT-29 was > 100 µM (inactive) each time. Further, the GI50 in the test with 786-0 was > 100 µM (inactive).
For the compound `Nc1onc2c1Cc1c(noc1N)-c1ccccc1-2`, the GI50 in the test on NCI/ADR-RES was > 100 µM (inactive); in the test on CAKI-1, 44.4 µM (inactive); in the test with HOP-62 it was > 100 µM (inactive); with NCI-H226, > 100 µM (inactive); with SR it was 35.2 µM (inactive); in the test on KM12, 49.8 µM (inactive). The GI50 was > 100 µM (inactive) in the test with DU-145; 35.1 µM (inactive) with MDA-MB-231; 45.1 µM (inactive) with SK-OV-3; 27 µM (inactive) in the test with T47D; 58.1 µM (inactive) in the test with RXF 393; 42.7 µM (inactive) in the test on CCRF-CEM. In addition, the GI50 was > 100 µM (inactive) with HCC 2998; 54 µM (inactive) in the test on SF-268; 53.7 µM (inactive) with OVCAR-3; 17.5 µM (inactive) in the test on BT-549; 53.6 µM (inactive) in the test with NCI-H23; 80.4 µM (inactive) in the test on HT-29. The GI50 with 786-0 is 79.3 µM (inactive).
For `CC(=O)O[C@H]1CC[C@@]2(C)[C@@H](CC[C@@H]3[C@@H]2CC(=O)[C@@]2(C)[C@H]3C[C@@H]3CC(C)=CC(=O)[C@@H]32)C1`, the GI50 was 59 µM (inactive) in the test on NCI/ADR-RES; > 100 µM (inactive) in the test on CAKI-1; 55.8 µM (inactive) with HOP-62; > 100 µM (inactive) with NCI-H226; 23.5 µM (inactive) in the test on SR; 57 µM (inactive) in the test on KM12. Also, the GI50 in the test with DU-145 is 53.8 µM (inactive); in the test on MDA-MB-231 it was > 100 µM (inactive); in the test on SK-OV-3, > 100 µM (inactive); with T47D, 40 µM (inactive); in the test on RXF 393, 30.2 µM (inactive); with CCRF-CEM it was 36.1 µM (inactive). Moreover, the GI50 in the test on HCC 2998 was 71.3 µM (inactive); with SF-268, 36.2 µM (inactive); in the test with OVCAR-3, 81.8 µM (inactive); in the test with BT-549 it was 28.3 µM (inactive); with NCI-H23, > 100 µM (inactive); in the test with HT-29 it was 31 µM (inactive). In the test with 786-0, the GI50 was 39.5 µM (inactive).
As for `COc1ncc(C#CC(=O)c2ccccc2OC)c(OC)n1`, the GI50 in the test on NCI/ADR-RES is 2.01 µM (inactive); in the test with CAKI-1, 1.77 µM (inactive); in the test on HOP-62, 17.7 µM (inactive); with NCI-H226, 1.42 µM (inactive); in the test on SR, 0.202 µM (active); with KM12, 5.7 µM (inactive). Further, the GI50 in the test with DU-145 was 5.87 µM (inactive); in the test on MDA-MB-231 it was 0.92 µM (active); with SK-OV-3, 25.6 µM (inactive); in the test with T47D it was 2.93 µM (inactive); in the test on RXF 393 it was 1.71 µM (inactive); in the test on CCRF-CEM, 0.0995 µM (active). Further, the GI50 with HCC 2998 is 6.35 µM (inactive); in the test with SF-268, 3.61 µM (inactive); in the test on OVCAR-3, 3.15 µM (inactive); with BT-549, 1.93 µM (inactive); with NCI-H23, 2.73 µM (inactive); in the test with HT-29 it was 1.57 µM (inactive). The GI50 with 786-0 was 1.86 µM (inactive).
In the case of `CC(C)(C(=O)N(C(=O)N1CCN(c2ccccc2)CC1)S(=O)(=O)c1ccccc1)c1ccc(Cl)cc1`, the GI50 was 6.92 µM (inactive) in the test with NCI/ADR-RES; 34.4 µM (inactive) with CAKI-1; 27.5 µM (inactive) with HOP-62; 52.4 µM (inactive) with NCI-H226; 22.8 µM (inactive) in the test on SR; 19.3 µM (inactive) with KM12. Moreover, the GI50 is 58.5 µM (inactive) in the test on DU-145; 31.7 µM (inactive) in the test with MDA-MB-231; 24 µM (inactive) with SK-OV-3; 29.2 µM (inactive) in the test with T47D; > 100 µM (inactive) in the test with RXF 393; 3.94 µM (inactive) in the test with CCRF-CEM. For the same compound, the GI50 was 27.7 µM (inactive) in the test on HCC 2998; 34.4 µM (inactive) in the test with SF-268; 18.7 µM (inactive) in the test on OVCAR-3; 30.7 µM (inactive) with BT-549; 16.3 µM (inactive) in the test on NCI-H23; 21.4 µM (inactive) in the test on HT-29. The GI50 in the test with 786-0 was 55.2 µM (inactive).
In the case of `COc1ccc(N2C(=O)C3c4[nH]c5ccc(OC)cc5c4C4CCC(c5ccccc5)CC4C3C2=O)cc1` (stereo not given), the GI50 in the test on NCI/ADR-RES is 12.6 µM (inactive); in the test on CAKI-1 it was 14.6 µM (inactive); in the test on HOP-62 it was 5.62 µM (inactive); in the test on NCI-H226, 28.7 µM (inactive); in the test on SR, 0.451 µM (active); with KM12, 14.2 µM (inactive). Further, the GI50 is 29.9 µM (inactive) with DU-145; 7.05 µM (inactive) in the test on MDA-MB-231; 12.2 µM (inactive) with SK-OV-3; 20.1 µM (inactive) in the test with T47D; 10.9 µM (inactive) with RXF 393; 2.27 µM (inactive) with CCRF-CEM. The GI50 in the test with HCC 2998 is 8.69 µM (inactive); with SF-268, 8.63 µM (inactive); with OVCAR-3, 16.7 µM (inactive); in the test with BT-549 it was 19.6 µM (inactive); in the test with NCI-H23, 17.5 µM (inactive); in the test with HT-29, 4.04 µM (inactive). Moreover, in the test on 786-0, the GI50 was 2.12 µM (inactive).
Take `O=CNc1ccc2c(c1)C(=O)c1ccccc1-2`: the GI50 in the test on NCI/ADR-RES is > 100 µM (inactive); in the test on CAKI-1 it was > 100 µM (inactive); in the test on HOP-62, 90.2 µM (inactive); in the test on NCI-H226, > 100 µM (inactive); with SR, 37.2 µM (inactive); in the test with KM12, 68.2 µM (inactive). Also, the GI50 in the test with DU-145 was 57.8 µM (inactive); with MDA-MB-231 it was > 100 µM (inactive); with SK-OV-3, > 100 µM (inactive); with T47D, 76.9 µM (inactive); in the test with RXF 393, 65.2 µM (inactive); in the test with CCRF-CEM it was 41.2 µM (inactive). In addition, the GI50 was > 100 µM (inactive) in the test on HCC 2998; 47.3 µM (inactive) in the test with SF-268; > 100 µM (inactive) with OVCAR-3; > 100 µM (inactive) in the test on BT-549; > 100 µM (inactive) in the test on NCI-H23; 49 µM (inactive) in the test on HT-29. Further, the GI50 with 786-0 was 42.9 µM (inactive).
Take `O=C(Nc1noc(-c2ccccc2)n1)c1ccccc1CNc1noc(-c2ccccc2)n1`: the GI50 with NCI/ADR-RES, with CAKI-1, in the test on HOP-62, with NCI-H226, with SR and with KM12 was > 100 µM (inactive) throughout. The GI50 in the test on DU-145, in the test on MDA-MB-231, with SK-OV-3, in the test with T47D, in the test on RXF 393 and in the test on CCRF-CEM was > 100 µM (inactive) in each case. Moreover, the GI50 in the test on HCC 2998, in the test with SF-268, with OVCAR-3, with BT-549, in the test on NCI-H23 and with HT-29 was > 100 µM (inactive) each time. Moreover, the GI50 in the test with 786-0 was > 100 µM (inactive).

Source of the values: ChEMBL document CHEMBL1201862, “PubChem BioAssay data set” (2004).
